Source: patent US20230391760A1, “HETEROCYCLIC GLP-1 AGONISTS” (Gasherbrum Bio, Inc., priority 2020, published 2023)

Biological target: GLP-1 Receptor (Homo sapiens, UniProt P43220)
Experiment: GLP-1R agonist cAMP stimulation assay (HEK293/GLP1R/CRE-LUC cells, cAMP dynamic 2 Kit)
Format: cell-based
Conditions: HEK293/CRE-Luc cell line stably expressing the GLP-1 Receptor, 30 min at 37° C.
Summary of the method: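 cAMP measured by HTRF competition (d2-labelled cAMP with cryptate antibody, 1 h, room temperature, protected from light). Before that, GLP1R/CRE-Luc HEK293 cells (1000/well) were exposed for 30 min at 37 °C to half-log compound dilutions in DPBS containing IBMX 0.5 mM and BSA 0.1%.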

Chain of GLP-1 Receptor (P43220 24-463, species assumed): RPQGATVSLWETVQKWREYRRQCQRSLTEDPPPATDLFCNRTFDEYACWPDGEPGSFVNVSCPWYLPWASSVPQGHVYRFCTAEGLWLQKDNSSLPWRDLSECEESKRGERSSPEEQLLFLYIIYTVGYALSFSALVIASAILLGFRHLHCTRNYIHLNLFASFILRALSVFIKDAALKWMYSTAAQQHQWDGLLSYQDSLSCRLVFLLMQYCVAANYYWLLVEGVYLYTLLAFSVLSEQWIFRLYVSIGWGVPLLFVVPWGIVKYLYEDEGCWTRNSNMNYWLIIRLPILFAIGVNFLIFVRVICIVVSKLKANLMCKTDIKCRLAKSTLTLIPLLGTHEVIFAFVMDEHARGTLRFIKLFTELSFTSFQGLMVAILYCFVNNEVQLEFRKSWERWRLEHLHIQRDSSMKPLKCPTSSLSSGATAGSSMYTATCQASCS

Row | SMILES | EC50 [pM]
1 | CC1(c2ccc(Cl)cc2F)Oc2cccc(C3CCN(Cc4nc5cc(-c6n[nH]c(=O)s6)ccc5n4C[C@@H]4CCO4)CC3)c2O1 (stereo partly drawn) [Compound 221a, 5-[2-({4-[2-(4-chloro-2-fluorophenyl)-2-methyl-2H-1,3-benzodioxol-4-yl]piperidin-1-yl}methyl)-1-{[(2S)-oxetan-2-yl]methyl}-1H-1,3-benzodiazol-5-yl]-2,3-dihydro-1,3,4-thiadiazol-2-one] | 7400
2 | O=C(Nc1ccc2c(c1)nc(CN1CCC(c3cccc(OCc4ccc(Cl)cc4F)n3)CC1)n2C[C@@H]1CCO1)N1CCC(F)C1 (stereo partly drawn) [Compound 206a, N-{2-[(4-{6-[(4-chloro-2-fluorophenyl)methoxy]pyridin-2-yl}piperidin-1-yl)methyl]-1-{[(2S)-oxetan-2-yl]methyl}-1H-1,3-benzodiazol-5-yl}-3-fluoropyrrolidine-1-carboxamide] | 780
3 | Cc1cnccc1C(=O)Nc1ccc2c(c1)nc(CN1CCC(c3cccc(OCc4ccc(Cl)cc4F)n3)CC1)n2C[C@@H]1CCO1 [Compound 178a, N-{2-[(4-{6-[(4-chloro-2-fluorophenyl)methoxy]pyridin-2-yl}piperidin-1-yl)methyl]-1-{[(2S)-oxetan-2-yl]methyl}-1H-1,3-benzodiazol-5-yl}-3-methylpyridine-4-carboxamide] | 570
4 | C[C@H](Cn1c(CN2CCC(c3cccc4c3O[C@@](C)(c3ccc(Cl)cn3)O4)CC2)nc2cc(-c3nnc(C(F)(F)F)[nH]3)ncc21)OC(F)F [Compound 476a, 5-chloro-2-[(2S)-4-[1-({3-[(2R)-2-(difluoromethoxy)propyl]-6-[5-(trifluoromethyl)-4H-1,2,4-triazol-3-yl]-3H-imidazo[4,5-c]pyridin-2-yl}methyl)piperidin-4-yl]-2-methyl-2H-1,3-benzodioxol-2-yl]pyridine] | 250
5 | O=C(Nc1ccc2c(c1)nc(CN1CCC(c3cccc(OCc4ccc(Cl)cc4F)n3)CC1)n2C[C@@H]1CCO1)C1CC1 [Compound 103a, (S)—N-(2-((4-(6-((4-chloro-2-fluorobenzyl)oxy)pyridin-2-yl)piperidin-1-yl)methyl)-1-(oxetan-2-ylmethyl)-1H-benzo[d]imidazol-5-yl)cyclopropanecarboxamide] | 309
6 | CO[C@H](C)Cn1c(CN2CCC(c3cccc4c3O[C@@](C)(c3ccc(Cl)cc3F)O4)CC2)nc2cc(-c3noc(=O)[nH]3)cnc21 [Compound 397a, 3-[2-({4-[(2S)-2-(4-chloro-2-fluorophenyl)-2-methyl-2H-1,3-benzodioxol-4-yl]piperidin-1-yl}methyl)-3-[(2R)-2-methoxypropyl]-3H-imidazo[4,5-b]pyridin-6-yl]-4,5-dihydro-1,2,4-oxadiazol-5-one] | 1300
7 | N#Cc1ccc(COc2cccc(C3CCN(Cc4nc5cc(-c6nnc(C(F)(F)F)[nH]6)nnc5n4C[C@@H]4CCO4)CC3)n2)c(F)c1 [Compound 487a, 3-fluoro-4-{[(6-{1-[(7-{[(2S)-oxetan-2-yl]methyl}-3-[5-(trifluoromethyl)-4H-1,2,4-triazol-3-yl]-7H-imidazo[4,5-c]pyridazin-6-yl)methyl]piperidin-4-yl}pyridin-2-yl)oxy]methyl}benzonitrile] | 29
8 | Fc1cc(Cl)ccc1COc1cccc(C2CCN(Cc3nc4cc(-c5nnc(C(F)(F)F)[nH]5)ncc4n3C[C@@H]3CCO3)CC2F)n1 (stereo partly drawn) [Compound 499a, 2-[(4-chloro-2-fluorophenyl)methoxy]-6-[(3,4-trans)-3-fluoro-1-[(3-{[(2S)-oxetan-2-yl]methyl}-6-[5-(trifluoromethyl)-4H-1,2,4-triazol-3-yl]-3H-imidazo[4,5-c]pyridin-2-yl)methyl]piperidin-4-yl]pyridine] | 40
9 | CC1(c2ccc(Cl)cc2F)Oc2cccc(C3CCN(Cc4nc5cc(-c6n[nH]c(=O)o6)ccc5n4C[C@@H]4CCO4)CC3)c2O1 (stereo partly drawn) [Compound 219a, 5-[2-({4-[2-(4-chloro-2-fluorophenyl)-2-methyl-2H-1,3-benzodioxol-4-yl]piperidin-1-yl}methyl)-1-{[(2S)-oxetan-2-yl]methyl}-1H-1,3-benzodiazol-5-yl]-2,3-dihydro-1,3,4-oxadiazol-2-one] | 1600
10 | C[C@]1(c2ccc(C#N)cc2F)Oc2cccc(C3CCN(Cc4nc5cc(-c6noc(=O)[nH]6)ncc5n4C[C@@H]4CCO4)CC3)c2O1 [Compound 433a, 3-fluoro-4-[(2S)-2-methyl-4-{1-[(3-{[(2S)-oxetan-2-yl]methyl}-6-(5-oxo-4,5-dihydro-1,2,4-oxadiazol-3-yl)-3H-imidazo[4,5-c]pyridin-2-yl)methyl]piperidin-4-yl}-2H-1,3-benzodioxol-2-yl]benzonitrile] | 13
11 | CC1(c2ccc(Cl)cc2F)Oc2cccc(C3CCN(Cc4nc5cc(C(=O)O)ccc5n4C[C@@H]4CCO4)CC3)c2O1 (stereo partly drawn) [Compound 161a, 2-((4-(2-(4-chloro-2-fluorophenyl)-2-methylbenzo[d][1,3]dioxol-4-yl)piperidin-1-yl)methyl)-1-(((S)-oxetan-2-yl)methyl)-1H-benzo[d]imidazole-5-carboxylic acid] | 510
12 | O=C1NCCN1c1ccc2c(c1)nc(CN1CCC(c3cccc(OCc4ccc(Cl)cc4F)n3)CC1)n2C[C@@H]1CCO1 [Compound 123a, 1-{2-[(4-{6-[(4-chloro-2-fluorophenyl)methoxy]pyridin-2-yl}piperidin-1-yl)methyl]-1-{[(2S)-oxetan-2-yl]methyl}-1H-1,3-benzodiazol-5-yl}imidazolidin-2-one] | 4000
13 | CC1(c2ccc(Cl)cc2F)Oc2cccc(C3CCN(Cc4nc5cc(-c6noc(=O)[nH]6)ccc5n4C[C@@H]4CCO4)CC3)c2O1 (single isomer, unassigned) [Compound 239c] | 550
14 | Cc1cn(-c2ccc3c(c2)nc(CN2CCC(c4cccc(OCc5ccc(Cl)cc5F)n4)CC2)n3C[C@@H]2CCO2)nn1 [Compound 210a, 2-[(4-{6-[(4-chloro-2-fluorophenyl)methoxy]pyridin-2-yl}piperidin-1-yl)methyl]-5-(4-methyl-1H-1,2,3-triazol-1-yl)-1-{[(2S)-oxetan-2-yl]methyl}-1H-1,3-benzodiazole] | 4200
15 | N#Cc1ccc(COc2cc(N3CCN(Cc4nc5cc(-c6nnc(C(F)(F)F)[nH]6)ncc5n4C[C@@H]4CCO4)CC3)ccc2F)c(F)c1 [Compound 469a, 3-fluoro-4-[(2-fluoro-5-{4-[(3-{[(2S)-oxetan-2-yl]methyl}-6-[5-(trifluoromethyl)-4H-1,2,4-triazol-3-yl]-3H-imidazo[4,5-c]pyridin-2-yl)methyl]piperazin-1-yl}phenoxy)methyl]benzonitrile] | 87
16 | C[C@]1(c2ccc(Cl)cc2F)Oc2cccc(C3CCN(Cc4nc5cc(-c6noc(=O)[nH]6)ncc5n4CC4(C#N)CC4)CC3)c2O1 [Compound 346a, 1-{[2-({4-[(2S)-2-(4-chloro-2-fluorophenyl)-2-methyl-2H-1,3-benzodioxol-4-yl]piperidin-1-yl}methyl)-6-(5-oxo-4,5-dihydro-1,2,4-oxadiazol-3-yl)-3H-imidazo[4,5-c]pyridin-3-yl]methyl}cyclopropane-1-carbonitrile] | 15
17 | CC1(c2ccc(Cl)cc2F)Oc2ccc(F)c(C3CCN(Cc4nc5cc(-c6nnc(C(F)(F)F)[nH]6)ncc5n4C[C@@H]4CCO4)CC3)c2O1 (stereo partly drawn) [Compound 458a, 4-[2-(4-chloro-2-fluorophenyl)-5-fluoro-2-methyl-2H-1,3-benzodioxol-4-yl]-1-[(3-{[(2S)-oxetan-2-yl]methyl}-6-[5-(trifluoromethyl)-4H-1,2,4-triazol-3-yl]-3H-imidazo[4,5-c]pyridin-2-yl)methyl]piperidine] | 300
18 | Fc1cc(C2CC2)ccc1COc1cccc(C2CCN(Cc3nc4cc(-c5nnc(C(F)(F)F)[nH]5)ncc4n3C[C@@H]3CCO3)CC2)n1 [Compound 498a, 2-[(4-cyclopropyl-2-fluorophenyl)methoxy]-6-{1-[(3-{[(2S)-oxetan-2-yl]methyl}-6-[5-(trifluoromethyl)-4H-1,2,4-triazol-3-yl]-3H-imidazo[4,5-c]pyridin-2-yl)methyl]piperidin-4-yl}pyridine] | 99
19 | Cc1nnc(-c2cnc3c(c2)nc(CN2CCC(c4cccc5c4O[C@@](C)(c4ccc(Cl)cc4F)O5)CC2)n3C[C@@H]2CCO2)[nH]1 [Compound 292a, 4-[(2S)-2-(4-chloro-2-fluorophenyl)-2-methyl-2H-1,3-benzodioxol-4-yl]-1-{[6-(5-methyl-4H-1,2,4-triazol-3-yl)-3-{[(2S)-oxetan-2-yl]methyl}-3H-imidazo[4,5-b]pyridin-2-yl]methyl}piperidine] | 100
20 | Fc1cc(Cl)ccc1COc1cccc(N2CCN(Cc3nc4cc(-c5nnc(C(F)(F)F)[nH]5)nnc4n3C[C@@H]3CCO3)CC2)n1 [Compound 492a, 1-{6-[(4-chloro-2-fluorophenyl)methoxy]pyridin-2-yl}-4-[(7-{[(2S)-oxetan-2-yl]methyl}-3-[5-(trifluoromethyl)-4H-1,2,4-triazol-3-yl]-7H-imidazo[4,5-c]pyridazin-6-yl)methyl]piperazine] | 84
21 | Cc1nnc(-c2cc3nc(CN4CCC(c5cccc6c5O[C@@](C)(c5ccc(Cl)cc5F)O6)CC4)n(C[C@@H]4CCO4)c3nn2)[nH]1 [Compound 280a, 4-[(2S)-2-(4-chloro-2-fluorophenyl)-2-methyl-2H-1,3-benzodioxol-4-yl]-1-{[3-(5-methyl-4H-1,2,4-triazol-3-yl)-7-{[(2S)-oxetan-2-yl]methyl}-7H-imidazo[4,5-c]pyridazin-6-yl]methyl}piperidine] | 110
22 | CC1(c2ccc(Cl)cn2)Oc2cccc(C3CCN(Cc4nc5cc(-c6nnc(C7CC7)[nH]6)ncc5n4C[C@@H]4CCO4)CC3)c2O1 (stereo partly drawn) [Compound 266a, 5-chloro-2-[4-(1-{[6-(5-cyclopropyl-4H-1,2,4-triazol-3-yl)-3-{[(2S)-oxetan-2-yl]methyl}-3H-imidazo[4,5-c]pyridin-2-yl]methyl}piperidin-4-yl)-2-methyl-2H-1,3-benzodioxol-2-yl]pyridine] | 94
23 | C[C@]1(c2ccc(Cl)cn2)Oc2cccc(C3CCN(Cc4nc5cc(-c6n[nH]c(C(F)(F)F)n6)cnc5n4C[C@@H]4CCO4)CC3)c2O1 (single isomer, unassigned) [Compound 333b] | 29
